Measured values: PMC11187126, “Structure and dynamics of the pyroglutamylated RF-amide peptide QRFP receptor GPR103” (Nature Communications, 2024)
No end group written: not given here.

Molecular target: T1, GPR103 Q184^4.64A (Homo sapiens, UniProt Q96P65, Q184A)
T1 construct: we used human full-length QRFPR-encoding plasmids; expressed in transfected cells; host or cells: HEK293 cells, pCAGGS vector
T1 sequence (Q96P65 1-431 Q184A): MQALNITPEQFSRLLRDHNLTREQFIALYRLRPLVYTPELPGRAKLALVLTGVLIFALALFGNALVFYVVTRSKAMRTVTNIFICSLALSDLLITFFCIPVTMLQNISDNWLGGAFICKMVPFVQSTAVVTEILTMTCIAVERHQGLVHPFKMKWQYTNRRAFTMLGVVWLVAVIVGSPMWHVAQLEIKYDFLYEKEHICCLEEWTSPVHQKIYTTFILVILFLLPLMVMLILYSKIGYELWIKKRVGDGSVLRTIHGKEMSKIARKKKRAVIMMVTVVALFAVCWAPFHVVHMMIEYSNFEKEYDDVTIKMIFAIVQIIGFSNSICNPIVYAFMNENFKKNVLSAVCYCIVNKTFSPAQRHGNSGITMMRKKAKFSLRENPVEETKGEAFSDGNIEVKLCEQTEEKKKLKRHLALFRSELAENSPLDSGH
Test: TGFα shedding assay; Exp. level WT (1:5)
Format: cell-based
Protocol: For the TGFα shedding assay and the flow cytometry analysis, we used human full-length QRFPR-encoding plasmids. Specifically, GPR103 was N-terminally modified with an HA signal sequence followed by a FLAG epitope and then a flexible linker ([…]; the FLAG epitope is underlined) and inserted into the pCAGGS vector. Plasmid encoding GPR103 mutants were generated using Quickchange Site-Directed Mutagensis kit (Agilent).
The TGFα shedding assay was performed as described previously with minor modifications. Plasmid transfection was performed in a 6-well plate with a mixture of 500 ng (per well in a 6-well plate) AP-TGFα-encoding plasmid and 200 ng GPR103-encoding plasmid. After 1-day culture, the transfected cells were harvested by trypsinization, pelleted by centrifugation at 190 × g for 5 min, and washed once with 5 mM HEPES (pH 7.4)-containing Hank’s Balanced Salt Solution (HBSS). After centrifugation, the cells were resuspended in 8 mL of the HEPES-containing HBSS. The cell suspension was seeded in a 96-well culture plate (cell plate) at a volume of 90 μL (per well hereafter) and incubated in a 37 °C incubator with 5% CO2 for 30 min. […] After spinning the cell plates at 190 × g for 2 min, 80 μL of conditioned media was transferred to an empty 96-well plate (conditioned media (CM) plate). Then, 80 μL of AP reaction solution (10 mM p-nitrophenylphosphate (p-NPP), 120 mM Tris-HCl (pH 9.5), 40 mM NaCl, and 10 mM MgCl2) was dispensed into the cell plates and the CM plates. Absorbance at 405 nm of the plates was measured using a microplate reader (SpectraMax 340 PC384, Molecular Devices) before and after 1-h incubation at room temperature. Ligand-induced AP-TGFα release was calculated by subtracting spontaneous AP-TGFα release signal from ligand-induced AP-TGFα release signal. The AP-TGFα release signals were fitted to a four-parameter sigmoidal concentration–response curve, using the Prism 10 software (GraphPad Prism). For each replicate experiment, the pEC50 parameter (negative logarithmic values of EC50 values) of the individual GPR103 mutants were normalized to that of the wild-type GPR103 performed in parallel, and resulting ∆pEC50 values were used to denote ligand response activity of the mutants. […]
Exp. le vel: WT (1:5 0)Exp. le vel: WT (1:5 0)Exp. le vel: WT (1:5 0)Exp. le vel: WT (1:2 0)Exp. le vel: WT (1:2 0)Exp. le vel: WT (1:1 0) […]
L1 4N - t e r mA F2 5N - t e r mA I 2 6N - t e r mA Y 2 9N - t e r mA C 9 82 .5 7A T10 22 .6 1A Exp . l eve l: WT (1 :5)Exp . l evel : >WT (1 :1)Exp. le vel: WT (1:2 0)Exp. le vel: WT (1:2 0)Exp. le vel: WT (1:5 0)Exp . l eve l: WT (1 :1) […]
Exp. le vel: WT (1:1 0)Exp. le vel: WT (1:2 0) C 1 1 83 .2 5AExp. le vel: WT (1:5 0)Exp. le vel: WT (1:5 0)Exp. le vel: WT (1:2 0)Exp . l eve l: WT (1 :5) […]
Exp. le vel: WT (1:5 0)Exp. le vel: WT (1:1 0)Exp. le vel: WT (1:5 0) E203ECL2AExp . l evel : >WT (1 :1)Exp. le vel: WT (1:5 0)Exp. le vel: WT (1:5 0) […]
Exp . l eve l: WT (1 :1) F28Exp. le vel: WT (1:5 0) C 2 8 56 .4 7AExp. le vel: WT (1:2 0) WExp. le vel: WT (1:2 0) F28Exp. le vel: WT (1:5 0)Exp . l evel : >WT (1 :1) […]
Exp. le vel: WT (1:5 0)Exp. le vel: WT (1:5 0) C 3 2 77 .4 8AExp . l eve l: WT (1 :5)Exp . l evel : >WT (1 :1)Exp . l evel : >WT (1 :1) […]
Suppl eme nt ary Figure 1 | Mutational analysis of GPR103. […]
mutants. Data are presented as mean values ± SEM, normally n=3-5; dots), each performed in triplicate. b-d Cell-surface expression (b) and QRFP26-in-duced activation of GPR103 (c, d) were analyzed by the flow cytometry and the TGFα shedding assay, respectively. From the concentration–response curves (a), Emax (c) and ΔpEC50 (d) values relative to the wild type were calculated. Colors in the mutant bars indicate an expression level matching to that of titrated wild type. Statistical analyses were performed using the ordinary one-way ANOVA followed by Dunnett tests with the expression-matched […]

**Q.** With TSGPLGNLAEELNGYSRKKGGFSFRF-NH2 [QRFP26] as the substance, how does the Emax (mean) read?
**A.** 99.8%

**Q.** And the EC50 (n = 3)?
**A.** 234 nM

**Q.** And the Emax (n = 3)?
**A.** 103 ± 2.2%
